Measured values as given in ChEMBL document CHEMBL1201862, “PubChem BioAssay data set” (2004).
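How tested: cells in 96-well plates exposed to compound for 48 hours at five concentrations. GI50 marks 50% less growth.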 Activity calls are given as the source filed them. No stated cut-off is given here; in the data, active = GI50 up to about 1.1 µM and inactive = higher.

Assays:
Assay in all cases: growth of human tumour cells (NCI), 48 h
A498 = test system: A498
CAKI-1 = test system: CAKI-1
CCRF-CEM = test system: CCRF-CEM
HOP-62 = test system: HOP-62
MOLT-4 = test system: MOLT-4
NCI-H226 = test system: NCI-H226
NCI-H23 = test system: NCI-H23
OVCAR-3 = test system: OVCAR-3
SF-295 = test system: SF-295
SK-MEL-28 = test system: SK-MEL-28
SK-OV-3 = test system: SK-OV-3
TK-10 = test system: TK-10
U-251 = test system: U-251
UACC-62 = test system: UACC-62
A549 = test system: A549
M14 = test system: M14
HOP-92 = test system: HOP-92

Clc1ccc2c(Cl)nc(-c3ccccc3)nc2c1
GI50 (A498): 37.4 µM (inactive)
GI50 (CAKI-1): 23.6 µM (inactive)
GI50 (CCRF-CEM): 22.9 µM (inactive)
GI50 (HOP-62): 53.2 µM (inactive)
GI50 (MOLT-4): 20.2 µM (inactive)
GI50 (NCI-H226): 13.2 µM (inactive)
GI50 (NCI-H23): 10.7 µM (inactive)
GI50 (OVCAR-3): 17.2 µM (inactive)
GI50 (SF-295): 25.2 µM (inactive)
GI50 (SK-MEL-28): 32.2 µM (inactive)
GI50 (SK-OV-3): 14.1 µM (inactive)
GI50 (TK-10): 46.1 µM (inactive)
GI50 (U-251): 11.8 µM (inactive)
GI50 (UACC-62): 19.4 µM (inactive)

N=C(N)NCCCC(Nc1c2ccccc2[n+]([O-])c2ccccc12)C(=O)O (centres undefined)
GI50 (A498): > 100 µM (inactive)
GI50 (A549): > 100 µM (inactive)
GI50 (CCRF-CEM): 33.4 µM (inactive)
GI50 (HOP-62): > 100 µM (inactive)
GI50 (M14): 73.6 µM (inactive)
GI50 (MOLT-4): 37.8 µM (inactive)
GI50 (NCI-H226): 70.6 µM (inactive)
GI50 (NCI-H23): 34.6 µM (inactive)
GI50 (OVCAR-3): 63.4 µM (inactive)
GI50 (SF-295): > 100 µM (inactive)
GI50 (SK-MEL-28): 27.2 µM (inactive)
GI50 (SK-OV-3): > 100 µM (inactive)
GI50 (TK-10): > 100 µM (inactive)
GI50 (U-251): 72.3 µM (inactive)
GI50 (UACC-62): 42.5 µM (inactive)

O=Cc1cn(C(=O)c2ccccc2)c2ccccc12
GI50 (A498): > 100 µM (inactive)
GI50 (A549): > 100 µM (inactive)
GI50 (CAKI-1): 82.8 µM (inactive)
GI50 (CCRF-CEM): 43.2 µM (inactive)
GI50 (HOP-62): > 100 µM (inactive)
GI50 (M14): > 100 µM (inactive)
GI50 (MOLT-4): 54.2 µM (inactive)
GI50 (NCI-H226): 56 µM (inactive)
GI50 (NCI-H23): 80.4 µM (inactive)
GI50 (OVCAR-3): > 100 µM (inactive)
GI50 (SF-295): 38.1 µM (inactive)
GI50 (SK-MEL-28): > 100 µM (inactive)
GI50 (SK-OV-3): > 100 µM (inactive)
GI50 (TK-10): > 100 µM (inactive)
GI50 (U-251): > 100 µM (inactive)
GI50 (UACC-62): > 100 µM (inactive)

CN(C)CCC(/C=C/c1ccccc1)=N\Nc1c(F)c(F)c(F)c(F)c1F
GI50 (A498): 62.2 µM (inactive)
GI50 (A549): 72.6 µM (inactive)
GI50 (CCRF-CEM): 55.6 µM (inactive)
GI50 (HOP-62): > 100 µM (inactive)
GI50 (M14): 44.1 µM (inactive)
GI50 (MOLT-4): 45.1 µM (inactive)
GI50 (NCI-H23): > 100 µM (inactive)
GI50 (OVCAR-3): > 100 µM (inactive)
GI50 (SF-295): 28.6 µM (inactive)
GI50 (SK-MEL-28): > 100 µM (inactive)
GI50 (SK-OV-3): > 100 µM (inactive)
GI50 (TK-10): > 100 µM (inactive)
GI50 (U-251): > 100 µM (inactive)
GI50 (UACC-62): 49.2 µM (inactive)

COc1ccc(S(=O)(=O)N/N=C(\C)CN2C(=O)c3ccccc3C2=O)cc1
GI50 (A498): > 100 µM (inactive)
GI50 (A549): > 100 µM (inactive)
GI50 (CAKI-1): > 100 µM (inactive)
GI50 (CCRF-CEM): > 100 µM (inactive)
GI50 (HOP-62): > 100 µM (inactive)
GI50 (M14): > 100 µM (inactive)
GI50 (MOLT-4): > 100 µM (inactive)
GI50 (NCI-H226): > 100 µM (inactive)
GI50 (NCI-H23): > 100 µM (inactive)
GI50 (OVCAR-3): > 100 µM (inactive)
GI50 (SF-295): > 100 µM (inactive)
GI50 (SK-MEL-28): > 100 µM (inactive)
GI50 (SK-OV-3): > 100 µM (inactive)
GI50 (TK-10): > 100 µM (inactive)
GI50 (U-251): > 100 µM (inactive)
GI50 (UACC-62): > 100 µM (inactive)

COC(=O)C(Cc1nc2ccccc2nc1O)C(=O)C(=O)Nc1ccc(F)cc1 (centres undefined)
GI50 (A549): > 100 µM (inactive)
GI50 (CAKI-1): > 100 µM (inactive)
GI50 (CCRF-CEM): 27.3 µM (inactive)
GI50 (HOP-62): > 100 µM (inactive)
GI50 (HOP-92): 20.8 µM (inactive)
GI50 (M14): 74.8 µM (inactive)
GI50 (MOLT-4): 58.6 µM (inactive)
GI50 (NCI-H226): > 100 µM (inactive)
GI50 (NCI-H23): 34 µM (inactive)
GI50 (OVCAR-3): 40.6 µM (inactive)
GI50 (SF-295): > 100 µM (inactive)
GI50 (SK-MEL-28): 27.4 µM (inactive)
GI50 (SK-OV-3): > 100 µM (inactive)
GI50 (TK-10): > 100 µM (inactive)
GI50 (UACC-62): 24.2 µM (inactive)

COc1ccc(/C=C/C(=N\NC(=O)c2ccccc2)c2sc(Nc3ccc([N+](=O)[O-])cc3)nc2C)cc1OC
GI50 (A549): 10.6 µM (inactive)
GI50 (CAKI-1): 17.7 µM (inactive)
GI50 (CCRF-CEM): 2.34 µM (inactive)
GI50 (HOP-62): 18.2 µM (inactive)
GI50 (HOP-92): < 0.01 µM (active)
GI50 (M14): 14.1 µM (inactive)
GI50 (MOLT-4): 2.77 µM (inactive)
GI50 (NCI-H226): 18.2 µM (inactive)
GI50 (NCI-H23): > 10 µM (inactive)
GI50 (OVCAR-3): 23.3 µM (inactive)
GI50 (SF-295): 11.2 µM (inactive)
GI50 (SK-MEL-28): 21.1 µM (inactive)
GI50 (SK-OV-3): 45.8 µM (inactive)
GI50 (TK-10): 29.3 µM (inactive)
GI50 (U-251): 5.3 µM (inactive)
GI50 (UACC-62): 2.75 µM (inactive)

Cc1ccc(C(=O)CC2=Nc3nnc(CCCCCCCc4nnc5n4C(=O)C(CC(=O)c4ccc(C)cc4)=N5)n3C2=O)cc1
GI50 (A549): > 100 µM (inactive)
GI50 (CAKI-1): > 100 µM (inactive)
GI50 (CCRF-CEM): > 100 µM (inactive)
GI50 (HOP-62): > 100 µM (inactive)
GI50 (M14): > 100 µM (inactive)
GI50 (MOLT-4): > 100 µM (inactive)
GI50 (NCI-H226): > 100 µM (inactive)
GI50 (NCI-H23): > 100 µM (inactive)
GI50 (OVCAR-3): > 100 µM (inactive)
GI50 (SF-295): > 100 µM (inactive)
GI50 (SK-MEL-28): > 100 µM (inactive)
GI50 (SK-OV-3): > 100 µM (inactive)
GI50 (TK-10): > 100 µM (inactive)
GI50 (U-251): > 100 µM (inactive)
GI50 (UACC-62): > 100 µM (inactive)

CCOC(=O)CC(=O)ON(C)C(=O)Cc1ccccc1
GI50 (A498): > 100 µM (inactive)
GI50 (A549): > 100 µM (inactive)
GI50 (CAKI-1): > 100 µM (inactive)
GI50 (CCRF-CEM): > 100 µM (inactive)
GI50 (HOP-62): > 100 µM (inactive)
GI50 (M14): > 100 µM (inactive)
GI50 (NCI-H226): > 100 µM (inactive)
GI50 (NCI-H23): > 100 µM (inactive)
GI50 (OVCAR-3): > 100 µM (inactive)
GI50 (SF-295): > 100 µM (inactive)
GI50 (SK-OV-3): > 100 µM (inactive)
GI50 (TK-10): > 10 µM (inactive)
GI50 (U-251): > 100 µM (inactive)
GI50 (UACC-62): > 100 µM (inactive)

C[P+](C)(C)c1ccccc1
GI50 (A549): > 100 µM (inactive)
GI50 (CAKI-1): > 100 µM (inactive)
GI50 (CCRF-CEM): > 100 µM (inactive)
GI50 (HOP-62): > 100 µM (inactive)
GI50 (HOP-92): > 100 µM (inactive)
GI50 (M14): > 100 µM (inactive)
GI50 (MOLT-4): > 100 µM (inactive)
GI50 (NCI-H226): > 100 µM (inactive)
GI50 (NCI-H23): > 100 µM (inactive)
GI50 (OVCAR-3): > 100 µM (inactive)
GI50 (SF-295): > 100 µM (inactive)
GI50 (SK-MEL-28): > 100 µM (inactive)
GI50 (SK-OV-3): > 100 µM (inactive)
GI50 (TK-10): > 100 µM (inactive)
GI50 (U-251): > 100 µM (inactive)
GI50 (UACC-62): > 100 µM (inactive)

Cc1cc(N(CCC#N)CCC#N)ccc1/N=N/c1cccc(C(=O)O)c1
GI50 (A498): > 100 µM (inactive)
GI50 (A549): > 100 µM (inactive)
GI50 (CAKI-1): > 100 µM (inactive)
GI50 (CCRF-CEM): > 100 µM (inactive)
GI50 (HOP-62): > 100 µM (inactive)
GI50 (M14): > 100 µM (inactive)
GI50 (MOLT-4): > 100 µM (inactive)
GI50 (NCI-H226): > 100 µM (inactive)
GI50 (NCI-H23): > 100 µM (inactive)
GI50 (OVCAR-3): 56 µM (inactive)
GI50 (SF-295): > 100 µM (inactive)
GI50 (SK-MEL-28): 97.7 µM (inactive)
GI50 (SK-OV-3): > 100 µM (inactive)
GI50 (TK-10): > 100 µM (inactive)
GI50 (U-251): > 100 µM (inactive)
GI50 (UACC-62): 60.5 µM (inactive)

Cc1cc(O)nc(NNC(C#N)c2cccc(O)c2)n1 (centres undefined)
GI50 (A549): > 100 µM (inactive)
GI50 (CAKI-1): > 100 µM (inactive)
GI50 (CCRF-CEM): > 100 µM (inactive)
GI50 (HOP-62): > 100 µM (inactive)
GI50 (HOP-92): > 100 µM (inactive)
GI50 (M14): > 100 µM (inactive)
GI50 (MOLT-4): > 100 µM (inactive)
GI50 (NCI-H226): > 100 µM (inactive)
GI50 (NCI-H23): > 100 µM (inactive)
GI50 (OVCAR-3): > 100 µM (inactive)
GI50 (SF-295): > 100 µM (inactive)
GI50 (SK-MEL-28): > 100 µM (inactive)
GI50 (SK-OV-3): > 100 µM (inactive)
GI50 (TK-10): > 100 µM (inactive)
GI50 (U-251): > 100 µM (inactive)
GI50 (UACC-62): 75.7 µM (inactive)

O=C(c1ccc(O)cc1O)C1C(c2ccc(O)cc2)OC(c2ccc(O)cc2)C1C(=O)c1ccc(O)cc1O (centres undefined)
GI50 (A549): > 100 µM (inactive)
GI50 (CAKI-1): 45.6 µM (inactive)
GI50 (HOP-62): 5.26 µM (inactive)
GI50 (M14): 18 µM (inactive)
GI50 (NCI-H226): 17.2 µM (inactive)
GI50 (NCI-H23): 30 µM (inactive)
GI50 (OVCAR-3): 18.7 µM (inactive)
GI50 (SF-295): 25.5 µM (inactive)
GI50 (SK-MEL-28): 19.4 µM (inactive)
GI50 (TK-10): 14.7 µM (inactive)
GI50 (U-251): 16.5 µM (inactive)
